Experimental data as given in ChEMBL document CHEMBL1781986, “Structure-activity relationships of pyrrole based S-nitrosoglutathione reductase inhibitors: pyrrole regioisomers and propionic acid replacement” (Bioorg Med Chem Lett, 2011).

Key:
[1] = Inhibition of GSNOR expressed in Escherichia coli using GSNO by cuvette method
[2] = Inhibition of GSNOR expressed in Escherichia coli using GSNO by plate method
[3] = test system: A549; experiment: Cytotoxicity against human A549 cells; type: functional, cell-based
[4] = Clearance in BALB/c mouse plasma at 2 mg/kg, iv or at 10 mg/kg, po administered as single dose; type: ADME, organism-based
[5] = Oral bioavailability in BALB/c mouse at 10 mg/kg administered as single dose; type: ADME, organism-based; conditions: in vivo

SMILES	IC50 [1] [µM]	also measured
COc1ccc(-c2ccn(-c3ccc(C(=O)O)cc3)c2-c2ccc(C(N)=O)cc2C)cc1	0.85	–
COc1cc(Cl)ccc1-c1ccc(CCC(=O)O)n1-c1ccc(C(N)=O)cc1C	–	IC50 [2]: 0.054 µM
COc1ccc(-c2ccn(-c3ccc(C(=O)O)c(Cl)c3)c2-c2ccc(C(N)=O)cc2C)cc1	3.47	–
COc1ccc(-c2ccn(-c3ccc(C(=O)O)c(F)c3)c2-c2ccc(C(N)=O)cc2C)cc1	1.57	–
COc1ccc(-c2ccn(-c3ccc(O)nc3)c2-c2ccc(C(N)=O)cc2C)cc1	21.6	–
COc1ccc(-c2ccn(-c3ccc(O)c(F)c3)c2-c2ccc(C(N)=O)cc2C)cc1	0.46	–
COc1ccc(-c2ccn(-c3cc(F)c(O)c(F)c3)c2-c2ccc(C(N)=O)cc2C)cc1	0.45	–
COc1ccc(-c2ccn(-c3ccc(O)cn3)c2-c2ccc(C(N)=O)cc2C)cc1	3.02	–
COc1cc(Cl)ccc1-n1ccc(CCC(=O)O)c1-c1ccc(C(N)=O)cc1C	–	IC50 [2]: 0.049 µM
COc1ccc(-c2ccn(C(CC(=O)O)c3ccccc3)c2-c2ccc(C(N)=O)cc2C)cc1 (stereo not drawn)	8.84	–
COc1ccc(-c2ccn(-c3ccc(S(N)(=O)=O)cc3)c2-c2ccc(C(N)=O)cc2C)cc1	28.4	–
COc1ccc(-c2ccn(-c3ccc(C(=O)O)cn3)c2-c2ccc(C(N)=O)cc2C)cc1	29.6	–
COc1ccc(-c2ccn(-c3ccc(C(=O)O)nc3)c2-c2ccc(C(N)=O)cc2C)cc1	8.53	–
COc1ccc(-c2ccn(C3CCC(C(=O)O)CC3)c2-c2ccc(C(N)=O)cc2C)cc1 (stereo not drawn)	> 100	–
COc1ccc(-c2ccn(-c3ccc(O)c(C(=O)O)c3)c2-c2ccc(C(N)=O)cc2C)cc1	0.41	–
COc1ccc(-c2ccc(CCC(=O)O)n2-c2ccc(C(N)=O)cc2C)cc1	–	IC50 [2]: 0.18 µM; clearance [4]: 35.4 mL/min/kg; bioavailability [5]: 16.2%
COc1ccc(-n2ccc(CCC(=O)O)c2-c2ccc(C(N)=O)cc2C)cc1	–	IC50 [2]: 0.16 µM

The next lines start with results.

IC50 [1] [µM]	SMILES	also measured
1.51	COc1ccc(-c2ccn(CC(F)(F)C(=O)O)c2-c2ccc(C(N)=O)cc2C)cc1	–
14.1	COc1ccc(-c2ccn(C(C)CC(=O)O)c2-c2ccc(C(N)=O)cc2C)cc1 (stereo not drawn)	–
> 100	COc1ccc(-c2ccn(CC(N)C(=O)O)c2-c2ccc(C(N)=O)cc2C)cc1 (stereo not drawn)	–
> 100	COc1ccc(-c2ccn(C(CC(=O)O)C3CC3)c2-c2ccc(C(N)=O)cc2C)cc1 (stereo not drawn)	–
8.09	COc1ccc(-c2ccn(CC3(C(=O)O)CC3)c2-c2ccc(C(N)=O)cc2C)cc1	–
23.5	COc1ccc(-c2ccn(CC(O)C(=O)O)c2-c2ccc(C(N)=O)cc2C)cc1 (stereo not drawn)	–
63.7	CCCC(CC(=O)O)n1ccc(-c2ccc(OC)cc2)c1-c1ccc(C(N)=O)cc1C (stereo not drawn)	–
97.2	COc1ccc(-c2ccn(C(CC(=O)O)C(C)C)c2-c2ccc(C(N)=O)cc2C)cc1 (stereo not drawn)	–
1.97	COc1ccc(-c2ccn(CC(C)C(=O)O)c2-c2ccc(C(N)=O)cc2C)cc1 (stereo not drawn)	–
0.52	COc1ccc(-c2ccn(CCC(=O)O)c2-c2ccc(C(N)=O)cc2C)cc1	IC50 [2]: 0.66 µM; IC50 [3]: > 250 µM; clearance [4]: 52.3 mL/min/kg; bioavailability [5]: 12.2%
